Tested on: IEC-18 cells
Assay: Repair of mechanically wounded IEC-18 monolayers
Format: cell-based, rat
Conditions: 5% PEG 15-20, 50 ng/ml EGF; after 24 hours
Procedure: In order to assess the ability of HMW PEG to induce the repair of epithelial monolayers following injury, IEC-18 cells were grown to confluency in 60 mm dishes, rinsed then the monolayer was mechanically wounded using a razor blade. Detached cells were removed and fresh medium containing 5% PEG 15-20, 50 ng/ml Epidermal Growth Factor (EGF) or a combination of both was added. The cells were maintained in the presence of treatment for 24 hours or were treated for 2 minutes, washed then incubated without treatment for 24 hours. Wound healing was assessed by the decrease in the length of the wound after 24 hours.

## EGF: Epidermal Growth Factor, 50 ng/ml (NSDSECPLSHDGYCLHDGVCMYIEALDKYACNCVVGYIGERCQYRDLKWWELR; UniProt P01133 971-1023, looked up)
  wound healing (decrease in the length of the wound): induced wound healing

Source: patent US20200016097A1, “Methods for Preventing and Treating Radiation-Induced Epithelial Disorders” (priority 2009, published 2020)
